The record followed here is patent US10596169B2, “Cancer treatment with combination of plinabulin and taxane” (BeyondSpring Inc., priority 2013, dated 2020).

The test system of this assay is MV522 human non-small cell lung tumor xenograph model. Put plainly: Example 1: MV522 xenograft, NPI-2358 single agent and with docetaxel (TGI/TGD). The assay is classed as in vivo, athymic nu/nu mice. The conditions noted are these: for MDS day ± SD: endpoint 1.5 cm^3. On the procedure:
In vivo evaluation of plinabulin (NPI-2358) as a single agent and in combination with docetaxel in the MV522 human non-small cell lung tumor xenograph model in athymic nu/nu mice
The objective of the example was to determine potential additive or synergistic effects of plinabulin in combination with docetaxel in the MV522 model by exploring the scheduling of the drug combination explored by administering one of the agents 2 hours after the first drug was given. Significant endpoints for this experiment included mean tumor growth inhibition (TGI) or regression, tumor growth delay (TGD) in large tumor, weight loss, and mortality.
Female nude mice (Hsd: Athymic Nude-Foxn1^nu) between 5 and 6 weeks of age weighing approximately 20 grams were obtained from Harlan, Inc. (Madison, Wis.). MV522 is a conventional human NSC metastatic lung tumor cell line (U.S. Pat. No. 7,700,615 or 7,629,380). Animals were injected subcutaneously (SC) with approximately 1×10^7 MV522 cells harvested from tissue culture. When tumors grew to approximately 105 cubic millimeters (mm^3) in size (3 days following implantation), animals were pair-matched by tumor size into treatment and control groups; each treatment group contained eight mice. Animals were ear-tagged and followed individually throughout the experiment.
Initial doses were administered on Day 1 following pair-matching. The experiment was carried out as a tumor growth inhibition (TGI) and tumor growth delay (TGD) study. Group 1 endpoint was when tumor volume reached 1.2 cm^3 (TGI) and the treated groups endpoint was when each individual animal's tumor volume reached 1.5 cm^3 (TGD). […] To serve as negative controls, NPI-2358 vehicle and docetaxel vehicle were injected IP on a 2×WKLY×3 schedule and IV on a Q2D×3 schedule, respectively. Docetaxel was administered by intravenous (IV) injection via tail vein at 15 mg/kg once every other day for three treatments (Q2D×3) or at 25 mg/kg on a Q7D×3 schedule (every 7 day for three treatment). Docetaxel and docetaxel vehicle were administered two hours prior to NPI-2358 vehicle and NPI-2358, respectively, in Groups 7-9 and 12-14. For Groups 10, 11, 15, and 16, NPI-2358 was given two hours prior to docetaxel.
Mice were weighed and caliper tumor measurements taken. Tumor growth inhibition (TGI) values were calculated for each group containing treated animals using the formula below: […]
Animals experiencing complete tumor responses or animals experiencing technical or drug-related deaths were censored from final TGI calculations; however animals experiencing partial tumor responses were included in the final TGI calculations. […] TGI values for each treatment group are reported at study completion; these calculations are based on the final study day.
This arm of the study was ended on Day 74 at the sponsor's request. […] Upon TGD study completion, a Median Day of Sacrifice (MDS) was calculated for the control (C) and each treatment (T) group and used to determine tumor growth delay (T-C) using the following equations: MDS=Median [ΣIDS] T−C=MDSTreated−MDSControl
Where IDS (Individual Day of Sacrifice) is the day when each animal reached its tumor volume endpoint (1.5 cm^3); only animals reaching this endpoint were included in TGD calculations. Gross or net log10 cell kill for each treatment group was determined using the following equations: […]

Setting [1] is: G7: docetaxel 15 mg/kg IV Q2Dx3 + NPI-2358 vehicle.
Setting [2] is: G12: docetaxel 25 mg/kg IV Q7Dx3 + NPI-2358 vehicle.

Marks after values point to notes of the source that are not given here.

`CC(=O)O[C@@]12CO[C@@H]1C[C@H](O)[C@@]1(C)C(=O)[C@H](O)C3=C(C)[C@@H](OC(=O)[C@H](O)[C@@H](NC(=O)OC(C)(C)C)c4ccccc4)C[C@@](O)([C@@H](OC(=O)c4ccccc4)[C@H]21)C3(C)C` [Docetaxel, docetaxel]: under setting [1], the “#CR (Day 25)” value is recorded as 0/0, the “#CR (TGD study)” value is 0/0, the “#LTS (long-term survivors)” value turned out to be 0 and the “#PR (Day 25)” value is 0/0. Moreover, under setting [1], the “#PR (TGD study)” value is reported as 0/0, the “% TGI” value came to 88%, the “Final tumor volume (Day 25) mean ± SEM” value is given as 259 ± 45 mm^3 and the Log10 cell kill stood at 0.4. For the same molecule, under setting [1], the “T-C (tumor growth delay)” value is 16 and the “MDS day ± SD” value is 45 ± 9 days. Besides, under setting [2], the “#CR (Day 25)” value worked out at 0, the “#CR (TGD study)” value is recorded as 0/0, the “#LTS (long-term survivors)” value was 2 and the “#PR (Day 25)” value turned out to be 8. Moreover, under setting [2], the “#PR (TGD study)” value was 0/0, the “% TR (Day 25)” value came out at 58%, the Activity rating result is recorded as “+ (1.0-1.9)” and the “Final tumor volume (Day 25) mean ± SEM” value is recorded as 43 ± 4 mm^3. Also, under setting [2], the Log10 cell kill is on record as 1.0, the “T-C (tumor growth delay)” value is recorded as 39 and the “MDS day ± SD” value turned out to be 68 ± 6 days. Also, the “% TGI” value (G12: docetaxel 25 mg/kg IV Q7Dx3 + NPI-2358 vehicle, value includes tumors with PR) is listed as 107^† %. For the setting “single agent, Example 1”, the “Tumor volume / tumor burden compared to vehicle control” value is on record as “strong decrease in tumor burden”.
